The values that follow come from patent US11981618B2, “P62 ligand compound, and composition for preventing, ameliorating or treating proteinopathies comprising the same” (AUTOTAC INC., priority 2018, dated 2024).

Entries after “also recorded” stand apart in the source; their conditions may differ.

One experiment relates to p62 and LC3. Nature of the experiment: Autophagy activity in cultured cells by immunofluorescence staining and confocal microscopy (p62 and LC3 puncta). To be noted: for p62 activation/oligomerization, delivery to autophagosome and autophagy activity (p62 and LC3 puncta, co-existence): HeLa, 5 uM, 24 hours, FIGS. 6a and 6b; for p62 activation/oligomerization, delivery to autophagosome and autophagy activity (p62 and LC3 puncta), control compounds: different concentrations, FIG. 7. It is filed as cell-based, human. The protocol: In order to confirm the p62 protein activity and the activity level of autophagy phenomenon by the compounds (Examples 1-19), immunofluorescence staining was performed using p62 and LC3 as markers. In order to confirm the p62 activity and the activity level of autophagy phenomenon by new p62 ligands and isomers thereof in cultured cells, HeLa cell line, which is a cell line derived from cervical cancer patient, was treated with the novel p62 ligand compounds (YOK-1106, YOK-1204, YOK-1504, YOK-2204, YOK-3304, YOK-4404, YOK-1107, YOK-1109, YOK-2207, YOK-2209, YT-4-1, YT-4-2, YT-6-1, YT-9-1 and YT-9-2) and cultured. Thereafter, as markers of the autophagy phenomenon, the expression level and location of LC3 puncta and the local co-existence with p62 puncta were observed.
For immunofluorescence staining, a cover glass was placed on a 24-well plate, cells were dispensed, cultured for 24 hours, and then treated with 5 uM of the novel p62 ligands according to the present invention. For the action of the compounds, additional cultures were performed for 24 hours, and then the medium was removed. Cells were fixed using formaldehyde at room temperature. In order to prevent non-specific staining, the cells were allowed to react with a blocking solution at room temperature for 1 hour, and then treated with LC3 antibody diluted at a certain ratio using the blocking solution, and allowed to reacted at room temperature for 1 hour. The antibody-treated cells were washed three times with PBS, and goat-derived secondary antibody was diluted at a certain ratio using the blocking solution, and then allowed to react at room temperature for 30 minutes. The cells were washed again with PBS three times, and for intracellular nuclear staining, the expression level, intracellular puncta formation and intracellular coexistence level of p62 and LC3 were observed through a confocal microscopy after DAPI staining.
In order to confirm p62 protein activity and the activity level of autophagy phenomenon of control compounds (YOK-A-1104, YOK-G-1104, YTK-1005, YTK-1105-1), immunofluorescence staining was performed in the same manner as in Experimental Example 4 by using p62 and LC3 as markers. YOK-A-1104 and YOK-G-1104 are compounds having the following structures.
The compounds were treated at different concentrations, and intracellular puncta of p62 or LC3, that is, the degree to which autophagosome was formed and p62 was delivered was observed by a confocal microscopy.

The test system of another experiment is LC3. Nature of the experiment: Autophagy activity in cultured cells by immunoblotting using LC3 as a marker. To be noted: HeLa. It is filed as cell-based, human. On the procedure:
In order to evaluate the autophagy activity efficacy by the compounds (Examples 1-19), HeLa cell line, which is a cell line derived from a cervical cancer patient, was cultured using a DMEM medium containing 10% FBS and 1% streptomycin/penicillin in an incubator with 5% carbon dioxide. As representative compounds among the present compounds, YOK-1107, YOK-4404 and YOK-1104 were selected. In order to measure autophagy activity according to the treatment with these selected representative compounds, the respective cells were dispensed into 6 well plates. Additional cultures were performed […] so that the cells were completely attached to the surface of the plate. To find the concentration at which the respective compounds could increase the phenomenon of autophagy, the test compounds were diluted at 1, 2, 5, 10 and 20 μM and treated. After treatment with the respective compounds, the cells were cultured again in a cell incubator for 24 hours, and then the cells were collected. To extract proteins from the collected cells, 100 ul of lysis buffer (20 mM Tris (pH 7.4), 150 mM NaCl, 1% Triton X-100, 2 mM NaF, 2 mM EDTA, 2 mM beta-glycerophosphate, 5 mM sodium orthovanadate, 1 mM PMSF, leupeptin, aprotinin) was injected into each sample, and cells were lysed. Based on the measured total protein concentration, a sample buffer was added to each sample and allowed to react at 100° C. for 5 minutes. 5 ul was taken from the samples after the reaction, and dispensed into each well of acrylamide gel, and then immunoblotting was performed.
In order to investigate the autophagy activity efficacy by the compounds (Examples 1-19), immunoblotting was performed in the same manner as in Experimental Example 2 using LC3 as a marker. As for the difference, in order to evaluate the treatment time required for activation and the activity retention time, as the representative compounds selected among the present compounds, 5 μM of YOK-1107, YOK-1204, YOK-1304, YOK-2204, YOK-3304, […] treated for 1, 3, 6, 12, 24, 48 hours. On the other hand, as the representative compounds selected among the compounds of the present invention, […] YOK-1107, YOK-1109, YOK-2207, YOK-2209, YT-4-1, YT-4-2, YT-6-1, YT-6-2, YT-6-8, YT-6-7, YT-9-1, YT-9-2 were treated for 24 hours.
In order to investigate the autophagy activity efficacy of control compounds, immunoblotting was performed in the same manner as in Experimental Example 2 by using LC3 as a marker. As the control compounds, compounds having the following structure were used.

In the next experiment the target is T1, p62 protein (Homo sapiens, UniProt Q13501).
T1 construct: endogenous in cells; host or cells: HEK293 (cell lysate treated with compounds)
T1 sequence (Q13501 whole entry): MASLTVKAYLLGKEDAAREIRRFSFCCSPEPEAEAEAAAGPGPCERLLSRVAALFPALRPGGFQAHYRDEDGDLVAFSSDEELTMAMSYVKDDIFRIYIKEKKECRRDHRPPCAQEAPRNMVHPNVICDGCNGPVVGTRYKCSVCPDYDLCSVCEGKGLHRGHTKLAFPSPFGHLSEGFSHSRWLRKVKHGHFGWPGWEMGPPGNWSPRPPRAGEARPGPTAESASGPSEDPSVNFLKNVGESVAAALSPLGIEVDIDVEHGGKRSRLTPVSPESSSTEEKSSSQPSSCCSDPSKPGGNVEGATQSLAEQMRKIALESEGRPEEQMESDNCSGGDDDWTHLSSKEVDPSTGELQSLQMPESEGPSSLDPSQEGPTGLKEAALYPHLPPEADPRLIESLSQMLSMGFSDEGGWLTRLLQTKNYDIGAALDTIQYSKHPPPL
As to the kind of experiment: Oligomerization activity of p62 protein in cultured cells by immunoblotting. Type of experiment: cell-based. The note with it: HEK293 cell lysate treated with test compounds at room temperature for 2 hours; immunoblot, FIG. 2. From the text:
In order to evaluate the p62 protein oligomerization activity efficacy by the compounds (Examples 1-19), HEK293 cell line, which is human embryonic kidney-derived cell, was collected. As representative compounds among the present compounds, YOK-1104, YOK-2204, YOK-3304, YOK-1204, YOK-4404, YOK-1107, YOK-1109, YOK-2207, YOK-2209, YT-4-1, YT-4-2, YT-6-1, YT-6-2, YT-6-7, YT-6-8, YT-9-1, YT-9-2 were selected. In order to measure intracellular p62 protein activation and oligomerization according to the treatment with these selected representative compounds, the respective cells were dispensed into a pi dish. The cells were collected after further culturing for 24 hours so that the cells were completely attached to the surface of the plate. 100 ul of lysis buffer (20 mM Tris, pH 7.4), 150 mM NaCl, 1% Triton X-100, 2 mM NaF, 2 mM EDTA, 2 mM beta-glycerophosphate, 5 mM sodium orthovanadate, 1 mM PMSF, leupeptin, aprotinin) were injected into each sample and the cells were lysed. Based on the measured total protein concentration, each sample was treated with test compounds at room temperature for 2 hours, and then a sample buffer was added and allowed to react at 95° C. for 10 minutes. 25 ul was taken from the samples after the reaction, and dispensed into each well of acrylamide gel, and then immunoblotting was performed.
(In western blotting, separated proteins are transferred to a membrane and probed.)

Where [1] appears, read: 5 μM, treated for 1, 3, 6, 12, 24, 48 hours, FIG. 4.
[2] abbreviates: treated for 24 hours (concentration not given), FIG. 4.

Regarding `OCCNC[C@@H](O)COc1ccc(OCc2ccccc2)c(OCc2ccccc2)c1` [YOK-1106], the “p62 activation/oligomerization, delivery to autophagosome and autophagy activity (p62 and LC3 puncta, co-existence)” value in the experiment with p62 and LC3 is “delivering them to autophagosome and simultaneously increasing autophagy activity”. Further, the “autophagy activity (level of LC3)” value with LC3 (setting [1]) was “increasing the autophagy activity”.
`CC(C)NC[C@@H](O)COc1ccc(OCc2ccccc2)c(OCCc2ccccc2)c1` [YOK-1204, (R)-1-(4-(benzyloxy)-3-phenethoxyphenoxy)-3-(isopropylamino)propan-2-ol]: on p62 protein, the “p62 protein oligomerization activity (p62 monomer, oligomers and high-molecular aggregates)” value (from here on “p62 protein oligomerization activity”) is recorded as “increasing the p62 protein oligomerization activity”. The “p62 activation/oligomerization, delivery to autophagosome and autophagy activity (p62 and LC3 puncta, co-existence)” value in the experiment on p62 and LC3 is “delivering them to autophagosome and simultaneously increasing autophagy activity”. In addition, in the experiment with LC3 (setting [1]), the “autophagy activity (level of LC3)” value was “gradually increased; also recorded: increasing the autophagy activity”.
As to `CC(C)NC[C@@H](O)COc1ccc(OCCc2ccccc2)c(OCCc2ccccc2)c1` [YOK-2204, (R)-1-(3,4-diphenethoxyphenoxy)-3-(isopropylamino)propan-2-ol], the “p62 protein oligomerization activity” value at p62 protein is recorded as “increasing the p62 protein oligomerization activity”. Also, the “p62 activation/oligomerization, delivery to autophagosome and autophagy activity (p62 and LC3 puncta, co-existence)” value with p62 and LC3 is “delivering them to autophagosome and simultaneously increasing autophagy activity”. For the same compound, the “autophagy activity (level of LC3)” value in the experiment on LC3 (setting [1]) is “gradually increased; also recorded: increasing the autophagy activity”.
Consider `CC(C)NC[C@@H](O)COc1ccc(OCCCc2ccccc2)c(OCCCc2ccccc2)c1` [YOK-3304, (R)-1-(3,4-bis(3-phenylpropoxy)phenoxy)-3-(isopropylamino)propan-2-ol], for which, on p62 protein, the “p62 protein oligomerization activity” value was “increasing the p62 protein oligomerization activity”. In the experiment with p62 and LC3, the “p62 activation/oligomerization, delivery to autophagosome and autophagy activity (p62 and LC3 puncta, co-existence)” value is “delivering them to autophagosome and simultaneously increasing autophagy activity”. The “autophagy activity (level of LC3)” value with LC3 (setting [1]) was “gradually increased”.
As to `CC(C)NC[C@@H](O)COc1ccc(OCCCCc2ccccc2)c(OCCCCc2ccccc2)c1` [YOK-4404, (R)-1-(3,4-bis(4-phenylbutoxy)phenoxy)-3-(isopropylamino)propan-2-ol], the “p62 protein oligomerization activity” value at p62 protein was “increasing the p62 protein oligomerization activity”. In the experiment with p62 and LC3, the “p62 activation/oligomerization, delivery to autophagosome and autophagy activity (p62 and LC3 puncta, co-existence)” value is “delivering them to autophagosome and simultaneously increasing autophagy activity”. For the same compound, the “autophagy activity (level of LC3)” value in the experiment on LC3 (setting [1]) is on record as “increasing the autophagy activity”; in the experiment with LC3 (1, 2, 5, 10 and 20 μM, 24 hours, FIG. 3), “increasing the autophagy activity”.
On to `CCOC(=O)C(C)NC[C@@H](O)COc1ccc(OCc2ccccc2)c(OCc2ccccc2)c1` (stereo partly drawn) [YOK-A-1104, Ethyl (R)-(3-(3,4-bis(benzyloxy)phenoxy)-2-hydroxypropyl)alanineate, reference compound], for which, in the experiment with p62 and LC3, the “p62 activation/oligomerization, delivery to autophagosome and autophagy activity (p62 and LC3 puncta), control compounds” value was “delivering them to autophagosome and simultaneously increasing autophagy activity”.
On the same count and under the same terms, the result for `COC(=O)CNC[C@@H](O)COc1ccc(OCc2ccccc2)c(OCc2ccccc2)c1` [YOK-G-1104, Methyl (R)-(3-(3,4-bis(benzyloxy)phenoxy)-2-hydroxypropyl)glycineate, reference compound] reads “delivering them to autophagosome and simultaneously increasing autophagy activity”.
For the compound `OCCNC[C@@H](O)COc1cccc(OCc2ccc(Cl)cc2)c1` [YT-6-7, (R)-1-(3-((4-chlorobenzyl)oxy)phenoxy)-3-((2-hydroxyethyl)amino)propan-2-ol], the “p62 protein oligomerization activity” value on p62 protein is “increasing the p62 protein oligomerization activity”. In the experiment with LC3 (setting [2]), the “autophagy activity (level of LC3)” value is listed as “gradually increased”.
The like results for `OCCNC[C@@H](O)COc1cccc(OCc2ccc(F)cc2)c1` [YT-6-8, (R)-1-(3-((4-fluorobenzyl)oxy)phenoxy)-3-((2-hydroxyethyl)amino)propan-2-ol] were, in that order, “increasing the p62 protein oligomerization activity” and “gradually increased”.
The like results for `N=C(N)NCCNC[C@@H](O)COc1ccc(OCc2ccc(Cl)cc2)c(OCc2ccc(Cl)cc2)c1` [YT-9-1] were, in that order, “increasing the p62 protein oligomerization activity” and “gradually increased”.
The like results for `N=C(N)NCCNC[C@@H](O)COc1ccc(OCc2ccc(F)cc2)c(OCc2ccc(F)cc2)c1` [YT-9-2] were, in that order, “increasing the p62 protein oligomerization activity” and “gradually increased”.
With `OCCNCc1ccc(OCc2ccccc2)c(O)c1` [YTK-1005, reference compound], the “p62 activation/oligomerization, delivery to autophagosome and autophagy activity (p62 and LC3 puncta), control compounds” value with p62 and LC3 was “delivering them to autophagosome and simultaneously increasing autophagy activity”.
Regarding `OCCCCc1ccc(OCc2ccccc2)c(OCc2ccccc2)c1` [YTK-1105-1, 4-(3,4-bis(benzyloxy)phenyl)butan-1-ol, reference compound], the “p62 activation/oligomerization, delivery to autophagosome and autophagy activity (p62 and LC3 puncta), control compounds” value in the experiment with p62 and LC3 is “delivering them to autophagosome and simultaneously increasing autophagy activity”. Moreover, the “autophagy activity (level of LC3), control compounds” value in the experiment with LC3 (different concentrations and different times, FIG. 5) is listed as “do not increase autophagy activity”.
